Measured values taken from patent US20240166639A1, “POTENT AND SELECTIVE COMPOUNDS AS SEROTONIN 1B RECEPTOR MODULATORS” (LEUKOS BIOTECH, S.L., priority 2020, published 2024).
pEC50, pKi: −log10 of the molar value. Where a name gives a salt, the structure may show the parent alone.

Columns and labels:
[1] = target: human 5-HT1B receptor (Homo sapiens (Human), UniProt P28222); assay: Competition binding in human 5-HT1B receptor; details: [3H]-GR125743, Hela-5-HT1B membranes; read-out: h5-HT1B Ki
Procedure: Serotonin 5-HT1B receptor competition binding experiments were carried out in a polypropylene 96-well plate. In each well was incubated 5 μg of membranes from Hela-5-HT1B cell line prepared in the laboratory (Lot: A001/14-11-2011, protein concentration=3179 μg/ml), 1.5 nM [^3H]-GR125743 ([…], 0.1 mCi/ml, Perkin Elmer NET1172100UC) and compounds studied and standard. Non-specific binding was determined in the presence of GR55562 10 μM (TOCRIS 1054). The reaction mixture (Vt: 250 μl/well) was incubated at 25° C. for 90 min, 200 μL was transfered to GF/C 96-well plate (Millipore, Madrid, Spain) pretreated with 0.5% of PEI and treated with binding buffer (Tris-HCl 50 mM, EDTA 1 mM, MgCl2 10 mM, pH=7.4), after was filtered and washed four times with 250 μl wash buffer (Tris-HCl 50 mM, pH=7.4), before measuring in a microplate beta scintillation counter (Microbeta Trilux, PerkinElmer, Madrid, Spain). […] From the IC50 the Ki is calculated according to the following formula: […]
(§1) Being: • IC50: inhibitory concentration, • D: real concentration of radioligand and • Kd: dissociation constant (affinity of radioligand to the receptor).

[2] = test system: human acute myeloid leukemia (AML) cells; details: every 2 days for 14 days, apomorphine 5 mg/kg, methiothepin 0.1 mg/kg, cited from earlier work; for AML burden in bone marrow (BM): vs vehicle
[3] = target: human 5-HT2A receptor (Homo sapiens (Human), UniProt P28223); assay: Competition binding in human 5-HT2A receptor; details: [3H]-Ketanserin, CHO-5-HT2A membranes; read-out: h5-HT2A Ki
human 5-HT2A receptor, sequence (P28223 whole entry): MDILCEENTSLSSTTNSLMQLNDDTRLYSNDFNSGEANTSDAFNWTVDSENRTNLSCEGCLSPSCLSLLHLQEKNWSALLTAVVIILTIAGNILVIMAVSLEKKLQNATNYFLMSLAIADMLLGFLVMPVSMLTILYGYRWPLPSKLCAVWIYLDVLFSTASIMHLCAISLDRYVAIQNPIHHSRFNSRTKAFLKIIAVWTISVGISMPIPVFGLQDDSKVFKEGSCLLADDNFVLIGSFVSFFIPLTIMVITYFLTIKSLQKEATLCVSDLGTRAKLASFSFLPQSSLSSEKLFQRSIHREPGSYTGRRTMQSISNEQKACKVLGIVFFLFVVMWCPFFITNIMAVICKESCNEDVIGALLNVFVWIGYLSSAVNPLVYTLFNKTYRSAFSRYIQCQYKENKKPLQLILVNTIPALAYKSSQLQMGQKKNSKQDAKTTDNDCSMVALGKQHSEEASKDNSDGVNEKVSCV
Procedure: Serotonin 5-HT2A receptor competition binding experiments were carried out in a polypropilene 96-well plate. In each well was incubated 80 μg of membranes from CHO-5-HT2A cell line prepared in the laboratory (protein concentration=4337 μg/ml), 1 nM [^3H]-Ketanserin (47.3 Ci/mmol, 1 mCi/ml, Perkin Elmer NET791250UC) and compounds studied and standard. Non-specific binding was determined in the presence of Methysergide 1 μM (Sigma M137). The reaction mixture (Vt: 250 μl/well) was incubated at 37° C. for 30 min, 200 μL was transfered to GF/B 96-well plate (Millipore, Madrid, Spain) pretreated with 0.5% of PEI and treated with binding buffer (Tris-HCl 50 mM, pH=7.4), after was filtered and washed six times with 250 μl wash buffer (Tris-HCl 50 mM, pH=6.6), before measuring in a microplate beta scintillation counter (Microbeta Trilux, PerkinElmer, Madrid, Spain).
The raw radioactivity data is adjusted to a logistic regression of 4 parameters using GraphPad Prism software, from the specific junction the value of IC50 is obtained. From the IC50 the Ki is calculated according to the following formula: […]
as §1

[4] = test system: MonoMac-1; assay: Cell viability assay, AML cell line MonoMac-1; type: cell-based; details: 48 h treatment, live cells by flow cytometry
Procedure: (§2) 0.15×10^6 AML cell lines (HL-60 or MonoMac-1) per mL were cultured in completed RPMI medium, supplemented with 10% Fetal bovine serum (FBS). Compounds were added to the medium at the concentration indicated (0.1, 1 and 10 μM), while controls were treated with equivalent concentration of vehicle (DMSO). Primary validation screenings were analyzed after 72 h of treatment, EC50 was determined upon 48 h treatments. Cells were stained with the live-dead discrimination dye 7-aminoactinomycin D (7-AAD) and Hoechst 33342 and acquired in a flow cytometer, with a volumetric counting. Live cells were discriminated based on a discrete FSC-SSC profile, 7-AAD negativity and dim positivity to Hoechst 33342. EC50 was calculated with the Prism GraphPad software.

[5] = test system: HL-60; assay: Cell viability assay, AML cell line HL-60; type: cell-based; details: 48 h treatment, live cells by flow cytometry
Procedure: as §2

[6] = Healthy blood cells viability assay; type: cell-based; details: 48 h treatment, healthy peripheral blood mononuclear cells; read-out: EC50 (uM), cytotoxic capacity on healthy cells
Procedure: (§3) 0.5×10^6 peripheral blood-mononuclear blood cells per mL were cultured in completed RPM medium, supplemented with 10% FBS. Compounds were added to the medium at 0.5/1/5/10/50 μM, while controls were treated with equivalent concentration of vehicle (DMSO). Upon 48 h treatment, cells were stained with the live-dead discrimination dye 7-AAD and Hoechst 33342, the pan-hernatopoietic surface marker CD45, and acquired in a flow cytometer, with a volumetric counting. Live cells were discriminated based on a discrete FSC-SSC profile, 7-AAD negativity, dim positivity to Hoechst 33342 and CD45 positivity. EC50 was calculated with the Prism GraphPad software.

[7] = test system: peripheral blood-mononuclear blood cells; assay: Healthy blood cells viability assay; type: cell-based; details: 48 h treatment, read-out: EC50 (uM), cytotoxic capacity on healthy cells
Procedure: as §3

human 5-HT1B receptor, sequence (P28222 whole entry): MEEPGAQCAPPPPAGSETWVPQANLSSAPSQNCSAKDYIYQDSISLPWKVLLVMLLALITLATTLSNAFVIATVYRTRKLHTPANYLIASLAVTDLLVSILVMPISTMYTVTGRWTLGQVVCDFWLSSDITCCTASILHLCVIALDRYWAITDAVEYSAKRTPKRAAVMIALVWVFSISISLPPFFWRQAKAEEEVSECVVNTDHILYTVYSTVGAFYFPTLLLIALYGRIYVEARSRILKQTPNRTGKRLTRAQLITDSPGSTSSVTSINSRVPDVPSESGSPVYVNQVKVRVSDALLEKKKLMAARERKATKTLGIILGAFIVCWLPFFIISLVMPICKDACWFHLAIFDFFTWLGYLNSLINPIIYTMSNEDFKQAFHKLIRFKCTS

## CN1CCc2cccc3c2[C@H]1Cc1ccc(O)c(O)c1-3 [Apomorphine, reference compound]
[1]
  pKi: 5.76
[2]
  clonogenic capacity of engrafted AML cells: impaired
  AML burden in bone marrow (BM): significant reduction
[3]
  pKi: 8.16
[4]; Mono-Mac-1
  pEC50: 4.93
[5]; Homo sapiens, HL-60
  pEC50: 5.31

## Cc1nc(-c2ccc(-c3ccc(C(=O)Nc4ccc(C#N)c(OCCN(C)C)c4)cn3)c(C3CC3)c2)no1 [Example 7, N-(4-cyano-3-(2-(dimethylamino)ethoxy)phenyl)-6-(2-cyclopropyl-4-(5-methyl-1,2,4-oxadiazol-3-yl)phenyl)nicotinamide]
[1]
  pKi: 8.01
[3]
  pKi: 5.60
[4]; Mono-Mac-1
  pEC50: 6.10
[6]
  EC50 at 48 h: 50 µM
[5]; Homo sapiens, HL-60
  pEC50: 6.19

## Cc1nc(-c2ccc(-c3ccc(C(=O)Nc4cc(OCCN(C)C)c(C#N)cn4)cc3)c(C3CC3)c2)no1 [Example 21, N-(5-cyano-4-(2-(dimethylamino)ethoxy)pyridin-2-yl)-2′-cyclopropyl-4′-(5-methyl-1,2,4-oxadiazol-3-yl)-[1,1′-biphenyl]-4-carboxamide]
[1]
  pKi: 8.20
[3]
  pKi: 5.46
[4]; Mono-Mac-1
  pEC50: 5.48
[6]
  EC50 at 48 h: > 50 µM
[5]; Homo sapiens, HL-60
  pEC50: 5.44

## Cc1nc(-c2ccc(-c3ccc(C(=O)Nc4cc(OCCN(C)C)c(C#N)cn4)cc3)c(Cl)c2)no1 [Example 23, 2′-chloro-N-(5-cyano-4-(2-(dimethylamino)ethoxy)pyridin-2-yl)-4′-(5-methyl-1,2,4-oxadiazol-3-yl)-[1,1′-biphenyl]-4-carboxamide]
[1]
  pKi: 8.10
[3]
  pKi: 5.52
[4]; Mono-Mac-1
  pEC50: 6.27
[6]
  EC50 at 48 h: > 50 µM
[5]; Homo sapiens, HL-60
  pEC50: 6.01

## Cc1nc(-c2ccc(-c3ccc(C(=O)Nc4ncc(C#N)c(OCCN(C)C)n4)cc3)c(C3CC3)c2)no1 [Example 36, N-(5-cyano-4-(2-(dimethylamino)ethoxy)pyrimidin-2-yl)-2′-cyclopropyl-4′-(5-methyl-1,2,4-oxadiazol-3-yl)-[1,1′-biphenyl]-4-carboxamide]
[4]; Mono-Mac-1
  pEC50: 5.13
[6]
  EC50 at 48 h: 25 µM
[5]; Homo sapiens, HL-60
  pEC50: 5.23

## Cc1nc(-c2ccc(-c3ccc(C(=O)Nc4ncc(C#N)c(OCCN(C)C)n4)cc3)c(Cl)c2)no1 [Example 38, 2′-chloro-N-(5-cyano-4-(2-(dimethylamino)ethoxy)pyrimidin-2-yl)-4′-(5-methyl-1,2,4-oxadiazol-3-yl)-[1,1′-biphenyl]-4-carboxamide]
[1]
  pKi: 7.78
[3]
  pKi: < 5.00
[6]
  EC50 at 48 h: 50 µM

## Cc1nc(-c2ccc(-c3ccc(C(=O)Nc4cc(OCCN(C)C)c(Br)cn4)cn3)c(C3CC3)c2)no1 [Example 39, N-(5-bromo-4-(2-(dimethylamino)ethoxy)pyridin-2-yl)-6-(2-cyclopropyl-4-(5-methyl-1,2,4-oxadiazol-3-yl)phenyl)nicotinamide]
[4]; Mono-Mac-1
  pEC50: 5.59
[6]
  EC50 at 48 h: 50 µM
[5]; Homo sapiens, HL-60
  pEC50: 5.46

## COc1cc(-c2noc(C)n2)ccc1-c1ccc(C(=O)Nc2cc(OCCN(C)C)c(Br)cn2)cn1 [Example 43, N-(5-bromo-4-(2-(dimethylamino)ethoxy)pyridin-2-yl)-6-(2-methoxy-4-(5-methyl-1,2,4-oxadiazol-3-yl)phenyl)nicotinamide]
[1]
  pKi: 8.82
[3]
  pKi: 5.70
[4]; Mono-Mac-1
  pEC50: 5.72
[5]; Homo sapiens, HL-60
  pEC50: 5.60

## Cc1nc(-c2ccc(-c3ccc(C(=O)Nc4cc(OCCN(C)C)c(C#N)cn4)cn3)c(C3CC3)c2)no1 [Example 45, N-(5-cyano-4-(2-(dimethylamino)ethoxy)pyridin-2-yl)-6-(2-cyclopropyl-4-(5-methyl-1,2,4-oxadiazol-3-yl)phenyl)nicotinamide]
[1]
  pKi: 7.59
[3]
  pKi: < 5.00
[4]; Mono-Mac-1
  pEC50: 5.94
[6]
  EC50 at 48 h: > 50 µM
[5]; Homo sapiens, HL-60
  pEC50: 5.75

## Cc1nc(-c2ccc(-c3ccc(C(=O)Nc4cc(OCCN(C)C)c(C#N)cn4)cn3)c(Cl)c2)no1 [Example 47, 6-(2-chloro-4-(5-methyl-1,2,4-oxadiazol-3-yl)phenyl)-N-(5-cyano-4-(2 (dimethylamino)ethoxy)pyridin-2-yl)nicotinamide]
[1]
  pKi: 8.01
[3]
  pKi: < 5.00
[4]; Mono-Mac-1
  pEC50: 5.39
[6]
  EC50 at 48 h: 25 µM
[5]; Homo sapiens, HL-60
  pEC50: 5.18

## COc1cc(-c2noc(C)n2)ccc1-c1ccc(C(=O)Nc2cc(OCCN(C)C)c(C#N)cn2)cn1 [Example 49, N-(5-cyano-4-(2-(dimethyiamino)ethoxy)pyridin-2-yl)-6-(2-methoxy-4-(5-methyl-1,2,4-oxadiazol-3-yl)phenyl)nicotinamide]
[1]
  pKi: 6.90
[3]
  pKi: < 5.00
[4]
  pEC50: 5.38
[5]
  pEC50: 5.94

## Cc1nc(-c2ccc(-c3ccc(C(=O)Nc4ccc(C#N)c(OCCN(C)C)n4)cn3)c(C3CC3)c2)no1 [Example 54, N-(5-cyano-6-(2-(dimethylamino)ethoxy)pyridin-2-yl)-6-(2-cyclopropyl-4-(5-methyl-1,2,4-oxadiazol-3-yl)phenyl)nicotinamide]
[1]
  pKi: 7.32
[3]
  pKi: < 5.00
[4]; Mono-Mac-1
  pEC50: 5.98
[5]; Homo sapiens, HL-60
  pEC50: 5.97

## Cc1nc(-c2ccc(-c3ccc(NC(=O)c4ccc(Br)c(OCCN(C)C)c4)cn3)c(F)c2)no1 [Example 65, 4-bromo-3-(2-(dimethylamino)ethoxy)-N-(6-(2-fluoro-4-(5-methyl-1,2,4-oxadiazol-3-yl)phenyl)pyridin-3-yl)benzamide]
[1]
  pKi: 9.30
[3]
  pKi: 6.00
[4]; Mono-Mac-1
  pEC50: 5.88
[5]; Homo sapiens, HL-60
  pEC50: 6.03

## COc1ccc(NC(=O)c2ccc(-c3ccc(-c4noc(C)n4)cc3C)cc2)cc1OCCN(C)C [SB41, N-[3-[3-(Dimethylamino)ethoxy]-4-methoxyphenyl]-2′-methyl-4′-(5-methyl-1,2,4-oxadiazol-3-yl)-[1,1′-biphenyl]-4-carboxamide hydrochloride, reference compound]
[1]
  pKi: 9.22
[3]
  pKi: 6.84
[4]
  pEC50: 5.61
[7]
  EC50: 12.5 µM
[5]
  pEC50: 5.14

## CSc1ccc2c(c1)C(N1CCN(C)CC1)Cc1ccccc1S2 (stereo not drawn) [methiothepin]
[2]
  clonogenic capacity of engrafted AML cells: impaired
  AML burden in bone marrow (BM): significant reduction
